# Laboratory results reported in US9597347B2, “Compositions for treating obesity and insulin resistance disorders” (President and Fellows of Harvard College, priority 2003, dated 2017).
# Experiments:
# [1] = system: Wild-type N2 C. elegans worms; experiment: Nile Red staining of fat accumulation in wild-type N2 C. elegans; format: in vivo; conditions: overnight
# Procedure: Wild-type N2 C. elegans worms were grown on OP50 bacteria and exposed overnight to vehicle (0.1% ethanol) alone or with 10, 50 or 100 μM of resveratrol (in ethanol). Fat accumulation was visualized with Nile Red staining, as described further below and in Ashrafi K, et al. Nature 421:268-27 (2003).
# Synchronized starved L1 worms were grown in the presence of Nile Red. Strains were grown on NGM plates at 25° C. for approximately 48 hours until the young adult stage was reached. 20-30 young adult worms were then washed 2× with M9 buffer and transferred to new NGM/Nile red experimental plates that contained either OP50 or HTT5 E. coli carrying the L4440 RNAi control vector. For experiments comparing the effect of nicotinamide and resveratrol on fat mobilization, OP50 plates were coated with vehicle alone or Nicotinamide (in PBS), or vehicle alone and Resveratrol (in Ethanol or DMSO).
# Resveratrol (Indofine #024964) was dissolved in Ethanol or DMSO to a 10 mM stock solution. Resveratrol was added to 60 mm NGM agar dishes containing either OP50 or RNAi expressing bacteria (HT115) to a final concentration of 10 μm, 50 μm, and 100 μM. Nile Red was also added to plates to a final concentration of 0.05 μg/ml. Nicotinamide (Supelco #47865-U) was diluted in PBS including Nile Red and added to […] dishes containing OP50 to a final concentration of 1 mM, 10 mM, or 100 mM.
# Nile Red: Nile Red Powder (Sigma #N-3013) was dissolved in acetone at 500 μg/ml, diluted in 1× Phosphate Buffered Saline (PBS) including appropriate drug and applied to surface of Nematode Growth Media (NGM) plates previously seeded with OP50 or RNAi bacteria, at a final concentration of 0.05 μg/ml. Fat content was monitored and recorded by fluorescence microscopy.
# Nile Red Staining was visualized by using a Nikon TE2000S microscope equipped with a CY3 filter (emission 535-685 nm). Images were captured using a SPOT RT monochrome digital camera attached to the Nikon Microscope with SPOT RT software v3.5. All Nile red images were acquired using identical settings and exposure times and then changed to red palette.
# HepG2 cells = experiment: Oxidation of 14C-palmitate in HepG2 cells; format: cell-based; conditions: resveratrol 10 μM in 1% DMSO, AICAR 500 μM in H2O, metformin 1 mM in H2O; 4 hours; vehicle = 1
# Procedure: Oxidation of 14C-palmitate to acid-soluble products (modified from H4IIEC3 cells [Witters, L. A. and B. E. Kemp, Insulin activation of acetyl-CoA carboxylase accompanied by inhibition of the 5′-AMP-activated protein kinase. J Biol Chem, 1992. 267(5): p. 2864-7] and HepG2 cells were maintained as described above. Cells (10^6 cells/T25) were seeded in a T25 flask one day prior to the experiment. On the day of the experiment cells were washed with assay buffer (114 mM NaCl, 4.7 mM KCL, 1.2 mM KH2PO4, 1.2 mM MgSO4, 11 mM glucose) before labeling with 14C-palmitate (0.4 μCi/ml) in presence of vehicle, or resveratrol (10 μM), or AICAR (500 μM) for 4 hours.
# At the end of incubation, the cap of each T25 flask was replaced with a stopper and a 1′×1.5″ Whatman filter paper soaked with 250 μl 2N NaOH. Each flask was injected with 2 ml of 6N HCL, placed in a horizontal position for 10 minutes and left standing overnight. The next morning, 1 ml H2O and 61 μl NaOH were added to a glass scintillation vial and the filter papers from each T25 flask were transferred to their respective vial. 10 ml Aquasol was added to each vial and allowed to stand for 2 hours, after which the vials were vortexed to dissolve the […] and counted in the scintillation counter. The results were expressed as nmols/h/106 cells and shown as the fold effect. ^14CO2 production ranged from 0.3 to 1.8 nmols/h/106 cells. The experiment was repeated three times.
# phosphorylation of ACC = experiment: Western blot of ACC phosphorylation in 3T3-L1 adipocytes; format: cell-based; conditions: harvested 6 or 10 days after induction of differentiation
# Procedure: Phosphorylation of ACC, which reflects AMPK activity, was also observed in 3T3-L1 adipocytes treated with either ethanol or resveratrol. 3T3-L1 cells were incubated with either ethanol or resveratrol and then harvested either 6 or 10 days after they were induced to differentiate into adipocytes from the parent 3T3 fibroblast cell line. […] ACC was also phosphorylated when the cells were incubated in serum free media overnight before harvesting (lanes marked “SF”). The reason for the extra band in the SIRT1 blot at day 6 is unknown, but we hypothesize that it may be a modified form of SIRT1. Tubulin served as a loading control.
# [2] = system: Wild-type N2 C. elegans worms; experiment: Nile Red staining of fat accumulation in wild-type N2 C. elegans; format: in vivo; conditions: 100 μM, L1 animals, 48 hours, control 2.5% v/v DMSO
compound,measurement,setting,value
"Oc1ccc(/C=C/c2cc(O)cc(O)c2)cc1 [resveratrol, 3,5,4′-Trihydroxy-trans-stilbene]",fat accumulation,[1]; 10 μM or 50 μM,marked decrease in fat accumulation
same,reduction of fat accumulation,[1]; 100 μM,90%
same,14C-CO2 production (Fold Effect),HepG2 cells,6 Fold Effect
same,phosphorylation of ACC,phosphorylation of ACC,stimulated the phosphorylation of ACC at both day 6 and day 10
same,fat staining,[2],Significant reduction of fat staining
